Consider one compound from US10322111B2, “Chemokine receptor binding heterocyclic compounds with enhanced efficacy” (Genzyme Corporation, priority 2001, dated 2019).

The test system of one assay is bone marrow stem cells. As to conditions: rats, coronary artery ligation, administered within hours after cardiac ischemia, with or without rhG-CSF. The method, then:
Adult rats are anesthetized and a thoracotomy is performed. The descending branch of the left coronary artery is ligated and not reperfused. […] Control rats are not treated with the reagents. The animals are monitored at one-week intervals by echocardiography and MRI. […] On the day of sacrifice, the hemodynamic functions are analyzed for left ventricle-end diastolic pressure, left ventricle-developed pressure and the rate of rise and fall of left ventricle pressure. The heart is then arrested in diastole and perfused via the abdominal aorta to flush residual blood from the vascular network of the myocardium. […] Several slices are made through the fixed heart and these are embedded in paraffin and sections. The sections are stained and analyzed by light microscopy to determine the size of the infarct in the treated and control animals. […] The immunohistochemical analysis involves the identification of transcription factors and surface markers expressed in early stages of myocyte development.

Assay [1] has as its system circulating CD34+ progenitor/stem cells. As to conditions: single dose of 80 μg/kg, cited from earlier work.

Take `c1cc(CN2CCCNCCNCCCNCC2)ccc1CN1CCCNCCNCCCNCC1` [AMD-3100]: in the assay on bone marrow stem cells, the “cardiac remodeling and scar formation” value is “block to cardiac remodeling and scar formation”; the “mobilization of bone marrow stem cells” value is “mobilizes bone marrow stem cells rapidly”; the regeneration of myocardium entry is “regeneration of the dead myocardium”. In assay [1] (6 hour time point), the “peak increase in circulating CD34+ progenitor/stem cells” value is 6 fold. Besides, in assay [1], the WBC count is 17,000 μl.
